{"source": "patent US10888511B2", "about": "“Methods and articles of manufacture for the treatment of skin” (Advanced Collagen Science LLC, priority 2013, dated 2021)", "key": {"Human Skin [1]": {"system": "Human Skin", "test": "Acetylation of human skin without dermabrasion, micro-needle roll or penetration enhancers", "type": "in vivo", "details": "20 mg/mL in 0.3M disodium phosphate pH 8.9, 30 seconds to 1 minute, no dermabrasion", "procedure": "In this example, the pre-treatment buffer, 0.1M disodium phosphate solution, pH 8.3, was applied for 30 seconds using surgical gauze. Glutaric anhydride (20 mg/mL) was mixed in 0.3M disodium phosphate solution at pH 8.9 and immediately (less than 5 seconds after dissolution) applied to the defects for 30 seconds to 1 minute using surgical gauze. Treatment sites were then rinsed with 0.1M phosphate buffered saline, pH 7.2. No effect on skin thickness or appearance was noted."}, "Human Skin [2]": {"system": "Human Skin", "test": "Acetylation of human skin using glutaric anhydride in vegetable oil without dermabrasion", "type": "in vivo", "details": "30 mg/mL dispersed in vegetable oil, 1 minute, one treatment, no dermabrasion", "procedure": "In this example, glutaric anhydride was applied to temporal defects adjacent to periorbital areas. Skin defects were pretreated by application of 0.1M disodium phosphate solution, pH 8.3 for 30 seconds using surgical gauze. Glutaric anhydride powder (30 mg/mL) was dispersed in vegetable oil and gently applied to the wet defects for 1 minute using surgical gauze. The treatment sites were then rinsed with 0.1M phosphate buffered saline, pH 7.2. Only one treatment was made to temporal skin sites."}, "[3]": {"system": "Human Skin (Hand and Temple)", "test": "Acetylation of human skin (hand and temple) following dermabrasion, in ethanol or anhydrous alcohol", "type": "in vivo", "details": "50 mg/mL in ethanol or anhydrous alcohol, 1 minute, after dermabrasion, up to 5 treatments", "procedure": "In this example, glutaric anhydride was applied to temporal defects adjacent to periorbital areas. Skin defects were first subject to gentle dermabrasion followed by application of 0.1M disodium phosphate solution, pH 8.3 for 30 seconds using surgical gauze. Glutaric anhydride (50 mg/mL) was dissolved in ethanol or anhydrous alcohol and applied to the defects for 1 minute using surgical gauze. Treatment sites were then rinsed with 0.1M phosphate buffered saline, pH 7.2. Up to 5 treatments were made to specific skin sites."}, "Human Skin [4]": {"system": "Human Skin", "test": "Acetylation of human skin using glutaric anhydride in pH adjusted vegetable oil following micro-needle roller treatment", "type": "in vivo", "details": "40 mg/mL in vegetable oil adjusted to pH 9.1, forearm, 1 minute", "procedure": "In this example, glutaric anhydride was applied to the forearm. A skin area approximately 4 mm×4 mm was punctured using a micro-needle roller, followed by pretreated with 0.1M disodium phosphate solution, pH 8.3 for 30 seconds using cotton swab. Glutaric anhydride powder (40 mg/mL) was dispersed in vegetable oil that was adjusted to a pH of 9.1 using granules of sodium hydroxide powder and gently applied to the pre-treated skin area for 1 minute using a cotton swab. The sites were rinsed using an alcohol swab."}, "Human Skin (Temple Area)": {"system": "Human Skin (Temple Area)", "test": "Acetylation of human skin (temple area) following dermabrasion, in ethanol", "type": "in vivo", "details": "50 mg/mL in ethanol, approximately 0.25 mL aliquots, 1 minute, after dermabrasion, up to 5 treatments", "procedure": "In this example, glutaric anhydride was applied to temporal defects adjacent to periorbital areas. Skin defects were first subject to gentle dermabrasion followed by application of 0.1M disodium phosphate solution, pH 8.3 for 30 seconds using surgical gauze. Glutaric anhydride (50 mg/mL) was dissolved in ethanol. Aliquots of approximately 0.25 mL were applied to the defects for 1 minute using surgical gauze. Treatment sites were then rinsed with 0.1M phosphate buffered saline, pH 7.2. Up to 5 treatments were made to specific skin sites"}, "Human Skin [5]": {"system": "Human Skin", "test": "Acetylation of human skin using glutaric anhydride in pH adjusted vegetable oil without dermabrasion", "type": "in vivo", "details": "30 mg/mL dispersed in vegetable oil adjusted to pH 9.0, 1 minute, one treatment, no dermabrasion", "procedure": "In this example, glutaric anhydride was applied to temporal defects adjacent to periorbital areas. Skin defects were pretreated by application of 0.1M disodium phosphate solution, pH 8.3 for 30 seconds using surgical gauze. Glutaric anhydride powder (30 mg/mL) was dispersed in vegetable oil adjusted to a pH of 9.0 using 10N NaOH and gently applied to the wet defects for 1 minute using surgical gauze. The treatment sites were then rinsed with 0.1M phosphate buffered saline, pH 7.2. Only one treatment was made to temporal skin sites."}, "Human Skin [6]": {"system": "Human Skin", "test": "Acetylation of human skin using glutaric anhydride in alkaline EDTA solution following pretreatment with alkaline EDTA solution", "type": "in vivo", "details": "powder on gauze flushed with 0.035M disodium EDTA pH 9.0, upper cheek", "description": "In this example, glutaric anhydride was applied to the cheek. An area of the upper cheek, below the eye, was pretreated with pH adjusted 0.035M disodium EDTA (pH 9.0) applied using a gauze pad. Glutaric anhydride powder was finely ground using a mortar and pestle and rubbed into a second gauze pad. The gauze was placed on the treatment area and flushed with pH adjusted 0.035M disodium EDTA (pH 9.0) to deliver the glutaric anhydride to the treatment site as it dissolved in the EDTA solution. […] Two such applications were performed."}, "Human Skin [7]": {"system": "Human Skin", "test": "Acetylation of human skin using glutaric anhydride in alkaline buffer solution following micro-needle roller treatment", "type": "in vivo", "details": "40 mg/mL in 0.3M disodium phosphate pH 9.1, forearm", "procedure": "In this example, glutaric anhydride was applied to the forearm. A skin area approximately 4 mm×4 mm was punctured using a micro-needle roller, followed by pretreated with 0.1M sodium phosphate buffer, pH 8.3 for 30 seconds using cotton swab. Glutaric anhydride powder (40 mg/mL) was dissolved in 0.3M disodium phosphate solution, pH 9.1 and gently applied to the pre-treated skin area for 1 minute using a cotton swab. The sites were final rinsed using an alcohol swab."}, "Human Skin [8]": {"system": "Human Skin", "test": "Acetylation of human skin using alcohol penetration enhancer", "type": "in vivo", "details": "50 mg/mL in ethanol, 1 minute, no dermabrasion, up to 5 treatments", "procedure": "In this example, glutaric anhydride was applied to temporal defects adjacent to periorbital areas. Skin defects were pretreated by application of 0.1M disodium phosphate solution, pH 8.3 for 30 seconds using surgical gauze. Glutaric anhydride (50 mg/mL) was dissolved in ethanol and applied to the defects for 1 minute using surgical gauze. Treatment sites were then rinsed with 0.1M phosphate buffered saline, pH 7.2. Up to 5 treatments were made to specific skin sites"}, "Human Skin [9]": {"system": "Human Skin", "test": "Acetylation of human skin following dermabrasion (aqueous buffer)", "type": "in vivo", "details": "20 mg/mL in 0.3M disodium phosphate pH 8.9, after gentle dermabrasion, temporal defects", "procedure": "In this example, glutaric anhydride was applied to temporal defects adjacent to periorbital areas. Skin defects were first subject to gentle dermabrasion followed by application of 0.1M disodium phosphate solution, pH 8.3 for 30 seconds using surgical gauze. Glutaric anhydride (20 mg/mL) was mixed in 0.3M disodium phosphate solution at pH 8.9 and immediately (less than 5 seconds after dissolution) applied to the defects for 30 seconds to 1 minute using surgical gauze. Treatment sites were then rinsed with 0.1M phosphate buffered saline, pH 7.2. Pre-treatment and post-treatment photos were taken and the results evaluated."}, "Human Skin [10]": {"system": "Human Skin", "test": "Acetylation of human skin using glutaric anhydride powder without dermabrasion", "type": "in vivo", "details": "powder (10 mg/mL) applied to wet defects, 1 minute, no dermabrasion, up to 5 treatments", "procedure": "In this example, glutaric anhydride was applied to temporal defects adjacent to periorbital areas. Skin defects were pretreated by application of 0.1M disodium phosphate solution, pH 8.3 for 30 seconds using surgical gauze. Glutaric anhydride powder (10 mg/mL) was gently applied to the wet defects for 1 minute, or until the powder dissolved, using surgical gauze. The powder Treatment sites were then rinsed with 0.1M phosphate buffered saline, pH 7.2. Up to 5 treatments were made to specific skin sites"}, "Processed Human Dermis": {"system": "Processed Human Dermis", "test": "Acetylation of processed human skin (epithelium removed): mechanical properties", "details": "100 mg/mL in dilute alkaline buffer pH 8.5, 1-minute treatment, vs specimen treated with buffer alone", "procedure": "Processed human skin was obtained for treatment. The processed skin was comprised of lyophilized dermis. Two samples were tested, two 2 cm×4 cm specimens. One of specimens was treated with 100 mg/mL of glutaric anhydride. The second specimen was treated with buffer solution alone. The rejuvenation agent was prepared in dilute alkaline buffer solution, pH 8.5, quickly dissolved and applied to the dermis within 15 seconds. Prior to treatment with the active agent, skin specimens were pre-treated with buffer alone. Treatments were completed in 1-minute."}, "[11]": {"details": "after micro-needle roller, 1 minute"}}}
{"smiles": "O=C1CCCC(=O)O1", "note": "[glutaric anhydride]", "values": [{"measurement": "Effect on skin thickness or appearance", "setting": "Human Skin [1]", "result": "No effect"}, {"measurement": "Feel of application sites", "setting": "Human Skin [2]", "result": "thicker and softer"}, {"measurement": "Sensation at treated sites immediately after treatment and for sometime after", "setting": "Human Skin [2]", "result": "mild tingly feeling"}, {"measurement": "Skin smoothness (visual)", "setting": "Human Skin [2]", "result": "minor visual improvement"}, {"measurement": "Skin thickness at the treatment sites (tactile)", "setting": "Human Skin [2]", "result": "tactile increase"}, {"measurement": "Skin appearance (visual)", "setting": "[3]", "result": "visual improvement"}, {"measurement": "Skin thickness at the treatment sites (tactile)", "setting": "[3]", "result": "tactile increase"}, {"measurement": "Sensation at treated sites immediately after treatment and for sometime after", "setting": "Human Skin [4]", "result": "mild tingly feeling"}, {"measurement": "Color of treated sites", "setting": "Human Skin [4]; after micro-needle roller", "result": "slightly red"}, {"measurement": "Feel of application site", "setting": "Human Skin [4]; after micro-needle roller", "result": "felt thicker immediately after treatment and for several days later"}, {"measurement": "Skin thickness at the treatment sites (tactile)", "setting": "Human Skin [4]; after micro-needle roller", "result": "tactile increase"}, {"measurement": "Skin smoothness (visual)", "setting": "Human Skin (Temple Area)", "result": "visual improvement"}, {"measurement": "Skin thickness at the treatment sites (tactile)", "setting": "Human Skin (Temple Area)", "result": "tactile increase"}, {"measurement": "Feel of application sites", "setting": "Human Skin [5]", "result": "thicker and softer"}, {"measurement": "Sensation at treated sites immediately after treatment and for sometime after", "setting": "Human Skin [5]", "result": "mild tingly feeling"}, {"measurement": "Skin smoothness (visual)", "setting": "Human Skin [5]", "result": "visual improvement"}, {"measurement": "Skin thickness at the treatment sites (tactile)", "setting": "Human Skin [5]", "result": "tactile increase"}, {"measurement": "Sensation as the glutaric anhydride penetrated the skin", "setting": "Human Skin [6]", "result": "slight burning or tingly sensation"}, {"measurement": "Redness at the treatment site", "setting": "Human Skin [6]; after gauze removed and site flushed", "result": "Some redness"}, {"measurement": "Persistence of skin thickening", "setting": "Human Skin [6]; after the second application", "result": "more than 2 weeks"}, {"measurement": "Skin thickening at the treatment site", "setting": "Human Skin [6]; after the second application", "result": "obvious minor skin thickening"}, {"measurement": "Sensation at treated sites immediately after treatment", "setting": "Human Skin [7]; 1 minute", "result": "mild tingly feeling"}, {"measurement": "Color of treated sites", "setting": "Human Skin [7]; [11]", "result": "slightly red"}, {"measurement": "Feel of application site", "setting": "Human Skin [7]; [11]", "result": "felt slightly thicker immediately after treatment only"}, {"measurement": "Effect of repeated treatments on skin appearance", "setting": "Human Skin [7]; after micro-needle roller, repeated treatments", "result": "appeared to enhance beneficial results"}, {"measurement": "Skin smoothness (visual)", "setting": "Human Skin [8]", "result": "minor visual improvement"}, {"measurement": "Skin thickness at the treatment sites (tactile)", "setting": "Human Skin [8]", "result": "tactile increase"}, {"measurement": "Appearance of skin defects", "setting": "Human Skin [9]", "result": "improvement"}, {"measurement": "Skin smoothness (visual)", "setting": "Human Skin [10]", "result": "No visual improvement"}, {"measurement": "Tactile increase in skin at the treatment sites", "setting": "Human Skin [10]", "result": "a tactile increase in skin as observed"}, {"measurement": "Durometer, Change (increase)", "setting": "Processed Human Dermis", "result": 5.3, "unit": "% increase"}, {"measurement": "Low Chord Modulus, Change (decrease)", "setting": "Processed Human Dermis", "result": 50.5, "unit": "% decrease"}, {"measurement": "Thickness, Change (increase)", "setting": "Processed Human Dermis", "result": 18.3, "unit": "% increase"}, {"measurement": "Water Retention, Change (increase)", "setting": "Processed Human Dermis", "result": 66.8, "unit": "% increase"}]}
